Our source for the bioavailability, Papp A→B and Vd values is ChEMBL document CHEMBL4825732, “Discovery of the Selective Protein Kinase C-θ Kinase Inhibitor, CC-90005” (J Med Chem, 2021).

Structures are written as SMILES.

Series [1] in a line: Oral bioavailability in dog at 10 mg/kg. The conditions noted are these: in vivo. The series is classed as ADME, organism-based, Canis lupus familiaris.
A short description of series [2]: Oral bioavailability in mouse at 10 mg/kg. The series is classed as ADME, organism-based. The conditions noted are these: in vivo.
A short description of series [3]: Apparent permeability across apical to basolateral side in human Caco2 cells. The series is classed as ADME, cell-based. The conditions noted are these: Caco-2.
Series [4] is described as follows: Oral bioavailability in rat at 10 mg/kg. The series is classed as ADME, organism-based. The following applies: in vivo.
Series [5] is described as follows: Volume of distribution at steady state in iv dosed rat. The series is classed as ADME, organism-based. The following applies: in vivo, read-out: Vdss.

Turning to `CC(F)(F)COc1ncncc1CNc1ncc(C#N)c(N[C@@H]2CC[C@H](O)C(C)(C)C2)n1`, the bioavailability in series [1] amounted to 46%; in series [2], 17%; in series [4], 66%. In addition, in series [3], the Papp A→B is 27 ×10⁻⁶ cm/s.
Take `CC1(C)[C@@H](O)C[C@H]1Nc1nc(NCc2cncnc2OCC(F)F)ncc1C#N`: the Papp A→B in series [3] was 11 ×10⁻⁶ cm/s.
As for `CC(C)(F)c1ncncc1CNc1ncc(C#N)c(N[C@@H]2C[C@H](O)C2(C)C)n1`, the Papp A→B in series [3] was 36 ×10⁻⁶ cm/s.
Take `CC1(C)CC(Nc2cc(NCc3cnccc3C(F)(F)F)ncc2C#N)CC(C)(C)N1`: in series [5], the Vd turned out to be 27.7 L/kg.
